Assay results taken from patent US20230364118A1, “RIBITOL TREATMENT” (priority 2020, published 2023).
“Also recorded” adds a separate entry of the source. Read-outs that look alike come from different tables or passages of the source.

What was measured:
[1] = In vitro permeability study; assay type: in vitro ADME; conditions: human, Caco-2, 300 μg/mL
Experimental: (§1) The absorption of ribitol was evaluated in Caco-2 cells at a concentration of 300 μg/mL. The apparent permeability values for apical (A)-to-basal (B) and B-to-A transport were <0.4 and […], respectively.

Caco-2 cells = assay: In vitro permeability study; assay type: in vitro ADME
Experimental: as §1

Single oral dose PK = assay type: in vivo, CD-1 mouse
Experimental: The PK of ribitol was studied in male and female CD-1 mice following two oral doses at 0.3 and 1.0 g/kg (FIG. 10). Blood samples were collected serially up to 24 hours post dose.

[2] = 28-day repeat-dose oral toxicokinetics; assay type: in vivo, Bama minipig; conditions: for AUC(0-t): read-out: AUC0-24
Experimental: Toxicokinetics of ribitol was evaluated as part of the 28-day toxicology study in male and female Bama minipig. […] Animals in control group were dosed for 28 days twice daily with the vehicle only (Purified Water). On Days 1 and 28, blood samples were collected at 0 (pre first dose), 0.5, 1, 2, 4, 6 (pre-second dose), 6.5, 7, 8, 10, 12, and 24 hours from all available animals.

[3] = CD-1, mouse, plasma, single PO 0.3 g/kg, female
[4] = CD-1, mouse, plasma, single PO 0.3 g/kg, male
[5] = CD-1, mouse, plasma, single PO 1.0 g/kg, female
[6] = CD-1, mouse, plasma, single PO 1.0 g/kg, male
[7] = 1.0 g/kg/dose BID (2.0 g/kg/day, NOAEL), Day 28, Female
[8] = 1.0 g/kg/dose BID (2.0 g/kg/day, NOAEL), Day 28, Male

With `OC[C@@H](O)[C@@H](O)[C@@H](O)CO` [ribitol, (2R,3s,4S)-Pentane-1,2,3,4,5-pentol] the Papp A→B at 300 μg/mL ([1]; read-out: apparent permeability A-to-B) was less than 0.4 ×10⁻⁶ cm/s, the Papp B→A at 300 μg/mL ([1]; read-out: apparent permeability B-to-A) was less than 0.1 ×10⁻⁶ cm/s and the P-gp substrate (Caco-2 cells) was “not a P-glycoprotein (P-gp) substrate”. For the same compound, the permeability class (Caco-2 cells) was “low permeability”, the Tmax (Single oral dose PK; CD-1, mouse, plasma, oral, mice, stated for FOB timepoint selection, read-out: Tmax) was roughly 1 h and the AUC(0-inf) (Single oral dose PK; [3]) was 55.9 µg·h/mL. For the same compound, the Cmax (Single oral dose PK; [3]) was 55 µg/mL, the bioavailability (Single oral dose PK; CD-1, mouse, plasma, single PO 0.3 g/kg, female, read-out: % F) was 30.9% and the half-life (Single oral dose PK; CD-1, mouse, plasma, single PO 0.3 g/kg, female, read-out: T1/2 (converted)) was 1.31 h. It also gave a Tmax (Single oral dose PK; CD-1, mouse, plasma, single PO 0.3 g/kg, female, read-out: Tmax) of 0.5 h, an AUC(0-inf) (Single oral dose PK; [4]) of 41.6 µg·h/mL and a Cmax (Single oral dose PK; [4]) of 45.6 µg/mL. It also gave a bioavailability (Single oral dose PK; CD-1, mouse, plasma, single PO 0.3 g/kg, male, read-out: % F) of 24.6%, a half-life (Single oral dose PK; CD-1, mouse, plasma, single PO 0.3 g/kg, male, read-out: T1/2 (converted)) of 0.677 h and a Tmax (Single oral dose PK; CD-1, mouse, plasma, single PO 0.3 g/kg, male, read-out: Tmax) of 0.5 h. It also gave an AUC(0-inf) (Single oral dose PK; [5]) of 129 µg·h/mL, a Cmax (Single oral dose PK; [5]) of 124 µg/mL and a bioavailability (Single oral dose PK; CD-1, mouse, plasma, single PO 1.0 g/kg, female, read-out: % F) of 22.1%. It also gave a half-life (Single oral dose PK; CD-1, mouse, plasma, single PO 1.0 g/kg, female, read-out: T1/2 (converted)) of 1.17 h, a Tmax (Single oral dose PK; CD-1, mouse, plasma, single PO 1.0 g/kg, female, read-out: Tmax) of 0.5 h and an AUC(0-inf) (Single oral dose PK; [6]) of 173 µg·h/mL. The Cmax (Single oral dose PK; [6]) was 112 µg/mL, the bioavailability (Single oral dose PK; CD-1, mouse, plasma, single PO 1.0 g/kg, male, read-out: % F) was 30.5% and the half-life (Single oral dose PK; CD-1, mouse, plasma, single PO 1.0 g/kg, male, read-out: T1/2 (converted)) was 1.31 h. It also gave a Tmax (Single oral dose PK; CD-1, mouse, plasma, single PO 1.0 g/kg, male, read-out: Tmax) of 0.5 h, a Tmax (Single oral dose PK; both sexes, CD-1, mouse, plasma, po, read-out: Tmax after oral administration) of less than 2 h and a bioavailability (Single oral dose PK; both sexes, CD-1, plasma, po, mouse, range over doses and sexes, read-out: oral bioavailability) of 22.1 to 30.9%. It also gave a half-life (Single oral dose PK; both sexes, CD-1, plasma, po, mouse, range, read-out: T1/2 following the oral dose) of 0.677 to 1.31 h, an AUC0-24 [2, 7] of 1980 ± 1040 µg·h/mL and a Cmax [2, 7] of 281 ± 141 µg/mL. For the same compound, the AUC0-24 [2, 8] was 2560 ± 526 µg·h/mL, the Cmax [2, 8] was 475 ± 97.7 µg/mL and the drug accumulation ([2]; after 28-day repeated oral administration, any dose level) was “no marked drug accumulation; also recorded: no apparent ribitol drug accumulation”. The Tmax ([2]; both sexes, Bama, minipig, plasma, oral, post dose and post second dose, Day 1 or Day 28, range) was 0.5 to 2 h, the AUC(0-t) ([2]; female, Bama, minipig, plasma, po, 0.1 g/kg, 0.1 g/kg/dose BID, Day 1, Female, mean ± SD) was 268 ± 129 µg·h/mL and the Cmax ([2]; female, Bama, minipig, plasma, po, 0.1 g/kg, 0.1 g/kg/dose BID, Day 1, Female, mean ± SD, read-out: Cmax) was 39.6 ± 23.3 µg/mL. The Tmax ([2]; female, Bama, minipig, plasma, po, 0.1 g/kg, 0.1 g/kg/dose BID, Day 1, Female, median (range)) was 5 h, the AUC(0-t) ([2]; female, Bama, minipig, plasma, po, 0.1 g/kg, 0.1 g/kg/dose BID, Day 28, Female, mean ± SD) was 257 ± 82.6 µg·h/mL and the Cmax ([2]; female, Bama, minipig, plasma, po, 0.1 g/kg, 0.1 g/kg/dose BID, Day 28, Female, mean ± SD, read-out: Cmax) was 37.2 ± 17.8 µg/mL.
